# Reference: a melting point compilation (Tetko et al.)
row,Structure (SMILES),melting point [°C]
1,NC(=O)c1ccc(NC(=O)OCC(F)(F)F)cc1Cl,178 to 180
2,NCC(O)c1ccco1 (centres undefined),80 to 82
3,N#CC1(O)CCOCC1,43 to 45
4,Nc1cccc(C(=O)N2CCC(O)CC2)c1,128 to 130
5,NS(=O)(=O)c1ccc(Cl)c(NC(=O)CCl)c1,172 to 174
6,Cc1ccc(S(=O)(=O)N(C)Cc2ccc(C(=O)NN)cc2)cc1,66 to 68
7,Cn1ccnc1C(=O)c1ccco1,34 to 36
8,O=C1CC(c2cccnc2)CN1 (centres undefined),69 to 71
9,CCOc1cc(C=O)cc(Cl)c1O,145 to 147
10,O=[N+]([O-])c1ccc(N2CCC(CO)CC2)nc1,123 to 125
11,N#Cc1ccc(OCc2ccccc2)nc1,71 to 73
12,O=C1Cn2ccnc2CN1,179 to 181
13,NS(=O)(=O)C1CCOCC1,129 to 131
14,CC(C)CNC(=O)c1cc(Cl)ccc1N,137 to 139
15,Cn1cc(Br)cc1C(=O)NN,169 to 171
16,CCOC(=O)Cc1csc(NC(=O)OCC(F)(F)F)n1,120 to 122
17,CC(Oc1ccc(Cl)cc1[N+](=O)[O-])C(=O)O (centres undefined),119 to 121
18,O=C(O)COc1ccc(C(F)(F)F)cc1,184 to 186
19,O=Cc1cn(-c2ccccc2)cn1,125 to 127
20,O=C1CNc2ccccc2N1,119 to 121
21,CNC(=O)CCC(F)(F)F,111 to 113
22,O=C(CCl)Nc1ccc(S(=O)(=O)N2CCCC2)cc1,185 to 187
23,O=C(O)C1CC(O)CN1C(=O)COc1ccccc1 (centres undefined),157 to 159
24,COc1cc(C)c(C(=O)O)cc1OC,146 to 148

row,Structure (SMILES),melting point [°C]
1,Nc1cc(C(=O)O)c(Br)cn1,276 to 278
2,CC(C)CNCC(O)c1ccccc1 (centres undefined),61 to 63
3,Nc1onc(-c2ccccc2)c1-c1ccccc1,144 to 146
4,Cc1nn(-c2ccccc2)cc1C=O,58 to 60
5,O=C(O)CCCN1C(=O)CCc2ccccc21,179 to 181
6,Ic1ccc(OCc2ccc3ncccc3c2)cc1,161 to 163
7,O=C(O)COc1ccc(F)cc1Br,142 to 144
8,COc1ccc(S(=O)(=O)NCCC(=O)O)cc1,125 to 127
9,CCNC(=O)c1cccnc1Cl,47 to 49
10,Cc1ccc(Oc2ccc(NC(=O)CCl)cc2)cc1,155 to 158
11,N#Cc1ccccc1Oc1ccc(N)cc1F,119 to 121
12,N#CC1CSCCS1 (centres undefined),76 to 78
13,c1cc(-c2nc3cc4c(cc3[nH]2)OCCO4)cs1,279 to 281
14,O=C(O)c1c[nH]nc1-c1ccc(F)cc1,302 to 304
15,N#CCCN(C(=O)CCl)c1ccc(F)cc1,85 to 87
16,COc1cc(C=O)c([N+](=O)[O-])cc1O,207 to 209
17,Cc1cc(C)n(C(C)C(=O)Nc2ccc(N)cc2Cl)n1 (centres undefined),198 to 200
18,c1ccc(-c2cn[nH]c2)cc1,229 to 231
19,CCCc1nc(C(=O)O)nn1-c1ccccc1Cl,142 to 144
20,NC(CCc1ccccc1)=NO,40 to 42
21,CSc1ccc(C(=O)CCC(=O)O)cc1,152 to 154
22,OCc1cn(-c2ccc(Cl)cc2)nn1,142 to 144
23,N#Cc1c(Cl)nc2sccn12,174 to 176
24,Cc1coc(C=CC(=O)O)n1,103 to 105

row,Structure (SMILES),melting point [°C]
1,CCN(CC)S(=O)(=O)c1ccc(-c2ccc(C=O)o2)cc1,119 to 121
2,Cc1cc(C(N)=O)c2ccccc2n1,246 to 248
3,CC1CCC(C(C)C)C(OC(=O)CSc2ccccc2C(=O)O)C1 (centres undefined),137 to 139
4,Cc1ccc(C)n1CC(=O)O,99 to 101
5,Cc1ccc(CNC(=O)NCC(=O)O)cc1,174 to 176
6,COC(=O)c1cc2nc(Cl)ccc2n1C,134 to 136
7,Cc1nc(-c2cccc([N+](=O)[O-])c2)no1,108 to 110
8,CC1CNC(=Nc2cnc3ccccc3c2)S1 (centres undefined),144 to 146
9,CC(C)NC(=O)Nc1ccc(C#N)cc1,193 to 195
10,O=C(O)c1cn(CC(=O)N2CCCC2)nn1,208 to 210
11,O=C(O)c1cccnc1-n1cnc2ccccc21,249 to 251
12,Cc1cc(C(=O)O)c2c(C)nn(-c3ccccc3)c2n1,195 to 197
13,Cc1ccc(C(=O)O)cc1OCc1csc(Br)c1,158 to 160
14,CCOc1ccc(CCC(=O)O)cc1,102 to 104
15,N#CCc1c[nH]c2cc(Br)ccc12,112 to 114
16,O=C(CO)N1CCOCC1,77 to 79
17,[N-]=[N+]=NC(C(=O)NC1CC1)c1ccc(F)cc1 (centres undefined),53 to 55
18,Cc1nc(-c2ccc(I)cc2)n[nH]1,197 to 199
19,CCc1nc(N)[nH]c(=S)n1,239 to 241
20,Cc1cc(C(=O)NC2CCCC2)ccc1N,146 to 148
21,Cc1ccc(C(=O)C2CC2)cc1,47 to 49
22,COc1cccc(NC(=O)CNc2ccccc2)c1,205 to 207
23,Fc1cc(Br)cc2c(Cl)ccnc12,149 to 151
24,O=C(Nc1ccc(S(=O)(=O)Cl)cc1)c1ccc(F)cc1,149 to 151

row,Structure (SMILES),melting point [°C]
1,O=C1CCN(c2ccc(Cl)cc2)CC1,54 to 56
2,Fc1ccc(NCc2ccccn2)cc1,71 to 73
3,CCNC(=O)COc1ccc(C=O)cc1OC,109 to 111
4,CNC1=NS(=O)(=O)c2ccccc21,269 to 271
5,Cc1ccc(NC(=O)OC(C)(C)C)s1,103 to 105
6,CCCc1ccc(-c2ccc(N)cc2)cc1,64 to 66
7,CC(C)(C)OC(=O)NCCOc1ccc(N)cc1,73 to 75
8,O=[N+]([O-])C=Cc1ccc(F)cc1F,55 to 57
9,Clc1nnc(-c2cccs2)c2ccccc12,128 to 130
10,Cc1csc(N2CCCC(C(=O)O)C2)n1 (centres undefined),147 to 149
11,O=C(O)CSc1nc(-c2ccccc2)no1,115 to 117
12,O=C(O)CCc1ccc2c(c1)OCCCO2,81 to 83
13,O=C(c1ccc(F)cc1)c1ncccn1,128 to 130
14,O=C(O)c1cc(S(=O)(=O)NCc2ccco2)c(Cl)cc1Cl,149 to 151
15,CN(C)c1ccc(C(=N)N)c(Cl)c1,148 to 150
16,CCc1cc(N)nc(C)n1,149 to 151
17,Cc1nc(CC(C)C)sc1C(=O)O,169 to 171
18,CC1CSc2ccc(Br)cc2C1=O (centres undefined),65 to 67
19,O=C(O)C1CC(=O)N(c2cccc(Br)c2)C1 (centres undefined),142 to 144
20,NNC(=O)c1ccc(NS(=O)(=O)c2cccs2)cc1,178 to 180
21,O=C(Nc1nncs1)c1ccc(O)cc1,303 to 305
22,Cc1ccc(C)c(-c2cnnc(N)n2)c1,179 to 181
23,C=CCNC(=O)c1ccc(N)cc1,78 to 80
24,CN(C)c1ccc(N)c2cnccc12,107 to 109

row,Structure (SMILES),melting point [°C]
1,O=c1cc(-c2cccc(Cl)c2)[nH]c(=O)[nH]1,248 to 250
2,COc1cc(OC)cc(C(=O)c2c(N)sc3c2CCC(C)C3)c1 (centres undefined),162 to 164
3,Cn1cc(-c2cccc(C(=O)O)c2)cn1,213 to 215
4,O=c1[nH]c2cc(Cl)ccc2c(=O)o1,250 to 252
5,NC(=O)C1CCCCN1C(=O)CCl (centres undefined),149 to 151
6,N#Cc1ccc(C(O)C(=O)O)cc1 (centres undefined),89 to 91
7,Cc1nnc(S)n1-c1ccccc1,224 to 226
8,O=Cc1sc2ccccc2c1Cl,104 to 106
9,O=c1c2ccccc2nc2n1CCO2,160 to 163
10,N#Cc1cnc2ccc(Cl)cc2c1Cl,129 to 131
11,O=[N+]([O-])c1cnc2c(c1)CCCC2,71 to 73
12,O=C(CCl)NCC(F)(F)F,51 to 53
13,CCOC(=O)Nc1ccc(Br)cc1,79 to 81
14,CC(Cc1cccc(F)c1)(C(=O)O)C(=O)O,150 to 152
15,O=C(O)c1ccnc2ncnn12,259 to 261
16,COC(=O)c1n[nH]c(=O)c2noc(C3CC3)c12,234 to 236
17,c1ccc(N2CCN(CC3CCCNC3)CC2)nc1 (centres undefined),73 to 75
18,CC(=NO)c1ccc(OCC(F)(F)F)cc1,127 to 129
19,O=C(O)c1c[nH]c2c(Br)ccc(Br)c2c1=O,271 to 273
20,CC(=O)NC(Cc1c[nH]c2cc(F)ccc12)C(=O)O (centres undefined),181 to 183
21,Nc1ccc(Cl)c(-n2nnnc2C2CC2)c1,135 to 137
22,COC(=O)c1c[nH]c(CC(C)C)n1,136 to 138
23,COc1ccc2c(c1)c(C(=O)O)c(C)n2C1CCCC1,174 to 176
24,O=S(=O)(Cl)c1cc(Br)ccc1F,68 to 70

row,Structure (SMILES),melting point [°C]
1,O=C(O)c1c[nH]c2nccc(Cl)c12,189 to 191
2,N#CC(C#N)=C1Nc2ccccc2N=C1Cl,264 to 266
3,O=Cc1ccc(Sc2ncccn2)c([N+](=O)[O-])c1,100 to 102
4,Cn1c(=O)[nH]c(=O)c2ccc(C(=O)O)nc21,305 to 307
5,O=C(O)C(OC1CCOCC1)c1ccccc1 (centres undefined),87 to 89
6,COc1ccccc1-c1nnc(S)n1C,177 to 179
7,CCOc1ccc(S(N)(=O)=O)cc1,152 to 154
8,COc1nc(O)c2ccccc2n1,228 to 230
9,CC(C)NC(=O)Nc1ccccc1[N+](=O)[O-],169 to 171
10,NNC(=O)C1Cc2ccccc2CN1Cc1ccccc1 (centres undefined),128 to 130
11,O=C(NCC1CCCNC1)Nc1cccc(F)c1 (centres undefined),123 to 125
12,CC(=O)Nc1cccc(CO)c1,113 to 115
13,Cc1ccc(SCCC(=O)O)cc1,71 to 73
14,NC(=O)NC(=O)C(Cl)c1ccccc1 (centres undefined),170 to 172
15,N#CCc1c[nH]c2ccc(F)cc12,54 to 56
16,O=C(O)c1cc(-n2ccnc2)ccn1,194 to 196
17,CC(C)(C)c1n[nH]c(O)c1CCC#N,218 to 220
18,Cc1c(Cl)cccc1-n1c(S)nnc1-c1ccncc1,322 to 324
19,O=C(O)CNS(=O)(=O)C1CCS(=O)(=O)C1 (centres undefined),306 to 308
20,Cc1nnc2c(Cl)nccn12,212 to 214
21,CC(C)C(Br)C(=O)N(C)C1CCCCC1 (centres undefined),72 to 74
22,Nc1nc(Cl)c(Cl)c(N)c1Cl,206 to 208
23,COC(=O)c1oc2ccccc2c1C,70 to 72
24,Cc1cc(C(=O)O)c2cnn(C(C)C)c2n1,172 to 174
